Our source for the inhibition and IC50 values is patent US9828379B2 (priority 2013, dated 2017).

In general, inhibition refers to how much of the control response was suppressed. As a reminder, the IC50 is the concentration at which inhibition is half-maximal.

Test [1] concerns the target T1, ABHD6 (Mus musculus, UniProt Q8R2Y0).
T1 sequence (Q8R2Y0 1-336): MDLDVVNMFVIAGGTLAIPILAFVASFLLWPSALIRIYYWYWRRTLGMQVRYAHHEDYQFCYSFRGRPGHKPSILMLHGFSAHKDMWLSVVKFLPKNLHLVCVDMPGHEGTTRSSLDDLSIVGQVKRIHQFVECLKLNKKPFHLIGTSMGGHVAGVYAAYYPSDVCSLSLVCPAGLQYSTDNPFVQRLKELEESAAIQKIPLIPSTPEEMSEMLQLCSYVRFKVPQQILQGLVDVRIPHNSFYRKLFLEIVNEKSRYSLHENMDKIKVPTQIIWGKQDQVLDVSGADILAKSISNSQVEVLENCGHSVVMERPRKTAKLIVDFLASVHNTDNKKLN
Kind of test: In vitro competitive activity-based protein profiling (Table 2, % inhibition at 1 μM). The conditions noted are these: read-out: % Inhibition at 1 μM ABHD6. Format: biochemical.

Test [2] concerns the target T2, FAAH (Mus musculus, UniProt O08914).
T2 sequence (O08914 1-579): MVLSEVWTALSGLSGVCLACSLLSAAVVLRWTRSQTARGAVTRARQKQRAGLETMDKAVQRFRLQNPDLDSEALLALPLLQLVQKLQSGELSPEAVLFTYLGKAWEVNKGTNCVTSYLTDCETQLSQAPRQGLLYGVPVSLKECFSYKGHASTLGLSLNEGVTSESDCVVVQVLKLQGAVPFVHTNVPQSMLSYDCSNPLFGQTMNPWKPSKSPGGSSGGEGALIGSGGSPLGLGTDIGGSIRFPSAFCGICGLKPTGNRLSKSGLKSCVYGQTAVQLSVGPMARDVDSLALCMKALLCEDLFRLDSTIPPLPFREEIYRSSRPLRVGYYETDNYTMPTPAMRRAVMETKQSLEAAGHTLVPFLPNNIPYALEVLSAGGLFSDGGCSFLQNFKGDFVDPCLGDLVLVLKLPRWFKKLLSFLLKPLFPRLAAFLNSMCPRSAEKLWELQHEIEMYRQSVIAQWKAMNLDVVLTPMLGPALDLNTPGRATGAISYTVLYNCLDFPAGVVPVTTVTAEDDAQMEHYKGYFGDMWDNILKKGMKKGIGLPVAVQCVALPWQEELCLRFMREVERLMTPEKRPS
Described as above. The test is classed as biochemical. To be noted: read-out: % Inhibition at 1 μM FAAH.

Test [3] addresses T3, MAGL (Mus musculus, UniProt O35678).
T3 sequence (O35678 1-303): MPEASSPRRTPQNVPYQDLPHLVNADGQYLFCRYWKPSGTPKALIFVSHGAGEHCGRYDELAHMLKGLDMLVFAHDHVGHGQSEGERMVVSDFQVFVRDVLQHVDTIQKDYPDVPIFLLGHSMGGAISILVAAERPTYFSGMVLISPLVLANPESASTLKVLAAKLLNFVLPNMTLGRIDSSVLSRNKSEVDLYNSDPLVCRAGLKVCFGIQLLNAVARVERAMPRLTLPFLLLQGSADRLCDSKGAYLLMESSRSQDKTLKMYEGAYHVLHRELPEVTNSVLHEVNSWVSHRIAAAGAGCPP
The test is described as above. Format: biochemical. The conditions noted are these: read-out: % Inhibition at 1 μM MAGL. How it is done:
After 30 min, FP—Rh (1.0 μL, 50 μM in DMSO) was added and the mixture was incubated for another 30 min at 37° C. Reactions were quenched with SDS loading buffer (50 μL-4×) and run on SDS-PAGE.
Cell lysates were diluted with mock proteomes for use in competitive ABPP experiments.

Test [4] concerns the target T2, FAAH. Description: biochemical. To be noted: in vitro competitive ABPP.
The target of test [5] is T3, MAGL. Description: biochemical. To be noted: mouse; in vitro competitive ABPP; read-out: Mouse (IC50 value, nM) MAGL.
Test [6] concerns the target T1, ABHD6. Description: biochemical. The conditions noted are these: in vitro competitive ABPP.
Test [7] addresses T4, Mouse brain MAGL (Mus musculus, UniProt O35678).
T4 construct: from tissue; host or cells: brain of wild-type C57Bl/6J mice dosed by oral gavage
T4 sequence (O35678 1-303): T3 sequence (O35678 1-303)
Description: Mouse brain proteomes from inhibitor treated mice (oral gavage, ABPP analysis). The test is classed as in vivo. To be noted: p.o., sacrificed 4 h following administration. As to the method: After 30 min, FP—Rh (1.0 μL, 50 μM in DMSO) was added and the mixture was incubated for another 30 min at 37° C. Reactions were quenched with SDS loading buffer (50 μL-4×) and run on SDS-PAGE. Following gel imaging, serine hydrolase activity was determined by measuring fluorescent intensity of gel bands corresponding to MAGL, ABHD6 and FAAH using ImageJ 1.43 u software.
Inhibitors were administered to wild-type C57Bl/6J by oral gavage in a vehicle of polyethylene glycol. Each animal was sacrificed 4 h following administration and brain proteomes were prepared and analyzed according to previously established methods (See Niphakis, M. J., et al. (2011) ACS Chem. Neurosci. and Long, J. Z., et al. Nat. Chem. Biol. 5:37-44).

With `CC(C)c1cc(CN2CC3CN(C(=O)OC(C(F)(F)F)C(F)(F)F)CC3C2)n(C2CCCCC2)n1` (centres unmarked) [Example 61, 1,1,1,3,3,3-Hexafluoropropan-2-yl 5-[[1-cyclohexyl-3-(propan-2-yl)-1H-pyrazol-5-yl]methyl]-octahydropyrrolo[3,4-c]pyrrole-2-carboxylate], the inhibition at 1 µM in test [1] was 25 to 75%; in test [2], < 25%; in test [3] it was > 75%. The IC50 in test [4] was > 10000 nM; in test [5] it was < 100 nM; in test [6], 1000 to 10000 nM. Besides, the inhibition at 5 mg/kg in test [7] was ≥ 75%.
For the compound `CCn1cc(CN2CC3CN(C(=O)OC(C(F)(F)F)C(F)(F)F)CC3C2)c(-c2cccc(N3CCOCC3)c2)n1` (centres unmarked) [Example 65, 1,1,1,3,3,3-Hexafluoropropan-2-yl 5-([1-ethyl-3-[3-(morpholin-4-yl)phenyl]-1H-pyrazol-4-yl]methyl)-octahydropyrrolo[3,4-c]pyrrole-2-carboxylate], the inhibition at 1 µM is < 25% in test [1], < 25% in test [2] and > 75% in test [3]. Also, the IC50 in test [4] is 1000 to 10000 nM; in test [5] it was < 100 nM; in test [6], 1000 to 10000 nM. Besides, the inhibition at 5 mg/kg in test [7] was ≤ 25%.
`Cc1c(CN2CC3CN(C(=O)OC(C(F)(F)F)C(F)(F)F)CC3C2)cccc1N1CCOCC1` (centres unmarked) [Example 47, 1,1,1,3,3,3-Hexafluoropropan-2-yl 5-[[2-methyl-3-(morpholin-4-yl)phenyl]methyl]-octahydropyrrolo[3,4-c]pyrrole-2-carboxylate]: the inhibition at 1 µM in test [1] was 25 to 75%; in test [2], 25 to 75%; in test [3], > 75%. Further, the 50% inhibitory concentration (IC50) was 1000 to 10000 nM in test [4], < 100 nM in test [5] and 1000 to 10000 nM in test [6]. In addition, the inhibition at 5 mg/kg in test [7] is ≥ 75%.
In the case of `CC(C)n1cc(CN2CC3CN(C(=O)OC(C(F)(F)F)C(F)(F)F)CC3C2)c(-c2cccc(Cl)c2)n1` (centres unmarked) [Example 174, 1,1,1,3,3,3-hexafluoropropan-2-yl 5-[[3-(3-chlorophenyl)-1-(propan-2-yl)-1H-pyrazol-4-yl]methyl]-octahydropyrrolo[3,4-c]pyrrole-2-carboxylate], the inhibition at 1 µM is 25 to 75% in test [1], < 25% in test [2] and > 75% in test [3]. The IC50 in test [4] is 1000 to 10000 nM; in test [5], < 100 nM; in test [6], 1000 to 10000 nM. Besides, the inhibition at 5 mg/kg in test [7] was ≤ 25%.
`CCn1cc(CN2CC3CN(C(=O)OC(C(F)(F)F)C(F)(F)F)CC3C2)c(-c2ccccc2N2CCCCC2)n1` (centres unmarked) [Example 130, 1,1,1,3,3,3-hexafluoropropan-2-yl 5-([1-ethyl-3-[2-(piperidin-1-yl)phenyl]-1H-pyrazol-4-yl]methyl)-octahydropyrrolo[3,4-c]pyrrole-2-carboxylate]: the inhibition at 1 µM in test [1] is < 25%; in test [2], < 25%; in test [3] it was > 75%. Also, the IC50 in test [4] was > 10000 nM; in test [5] it was < 100 nM; in test [6], 1000 to 10000 nM. Moreover, the inhibition at 5 mg/kg in test [7] is ≤ 25%.
In the case of `O=C(OC(C(F)(F)F)C(F)(F)F)N1CC2CN(Cc3ccc(Cl)cc3N3CCC4(CCNC4=O)CC3)CC2C1` (centres unmarked) [Example 38, 1,1,1,3,3,3-Hexafluoropropan-2-yl 5-[(4-chloro-2-[1-oxo-2,8-diazaspiro[4.5]decan-8-yl]phenyl)methyl]-octahydropyrrolo[3,4-c]pyrrole-2-carboxylate], the inhibition at 1 µM is < 25% in test [1], < 25% in test [2] and > 75% in test [3]. In addition, the values for the IC50 in test [4], in test [5] and in test [6] were > 10000 nM, < 100 nM and 1000 to 10000 nM, respectively. The inhibition at 5 mg/kg in test [7] was ≤ 25%.
On to `Cc1c(CN2CC3CN(C(=O)OC(C(F)(F)F)C(F)(F)F)CC3C2)cccc1N1CCCCC1` (centres unmarked) [Example 29, 1,1,1,3,3,3-Hexafluoropropan-2-yl 5-[[2-methyl-3-(piperidin-1-yl)phenyl]methyl]-octahydropyrrolo[3,4-c]pyrrole-2-carboxylate], for which the inhibition at 1 µM was < 25% in test [1], 25 to 75% in test [2] and > 75% in test [3]. Moreover, the half-maximal inhibitory concentration (IC50) in test [4] was 1000 to 10000 nM; in test [5], < 100 nM; in test [6], > 10000 nM. Also, the inhibition at 5 mg/kg in test [7] is ≤ 25%.
Regarding `CCn1cc(CN2CC3CN(C(=O)OC(C(F)(F)F)C(F)(F)F)CC3C2)c(-c2ccccc2N2CCOCC2)n1` (centres unmarked) [Example 131, 1,1,1,3,3,3-hexafluoropropan-2-yl 5-([1-ethyl-3-[2-(morpholin-4-yl)phenyl]-1H-pyrazol-4-yl]methyl)-octahydropyrrolo[3,4-c]pyrrole-2-carboxylate], the inhibition at 1 µM was < 25% in test [1], < 25% in test [2] and > 75% in test [3]. For the same compound, the IC50 is > 10000 nM in test [4], < 100 nM in test [5] and 1000 to 10000 nM in test [6]. For the same compound, the inhibition at 5 mg/kg in test [7] is ≥ 75%.
`CCn1cc(CN2CC3CN(C(=O)OC(C(F)(F)F)C(F)(F)F)CC3C2)c(-c2cccc(N3CCC3)c2)n1` (centres unmarked) [Example 66, 1,1,1,3,3,3-Hexafluoropropan-2-yl 5-([3-[3-(azetidin-1-yl)phenyl]-1-ethyl-1H-pyrazol-4-yl]methyl)-octahydropyrrolo[3,4-c]pyrrole-2-carboxylate]: the figures for the inhibition at 1 µM in test [1], in test [2] and in test [3] were 25 to 75%, < 25% and > 75%, respectively. Also, the half-maximal inhibitory concentration (IC50) in test [4] is 1000 to 10000 nM; in test [5], < 100 nM; in test [6], 1000 to 10000 nM. Besides, the inhibition at 5 mg/kg in test [7] is ≤ 25%.
With `O=C(OC(C(F)(F)F)C(F)(F)F)N1CC2CN(Cc3cccc(N4CCOCC4)c3C(F)(F)F)CC2C1` (centres unmarked) [Example 129, 1,1,1,3,3,3-hexafluoropropan-2-yl 5-[[3-(morpholin-4-yl)-2-(trifluoromethyl)phenyl]methyl]-octahydropyrrolo[3,4-c]pyrrole-2-carboxylate], the inhibition at 1 µM was < 25% in test [1], < 25% in test [2] and > 75% in test [3]. For the same compound, the results for the concentration for half-maximal inhibition (IC50) in test [4], in test [5] and in test [6] were 1000 to 10000 nM, < 100 nM and 1000 to 10000 nM, respectively. Also, in test [7], the inhibition at 5 mg/kg was ≥ 75%.
Take `CCn1cc(CN2CC3CN(C(=O)OC(C(F)(F)F)C(F)(F)F)CC3C2)c(-c2cccnc2)n1` (centres unmarked) [Example 71, 1,1,1,3,3,3-Hexafluoropropan-2-yl 5-[[1-ethyl-3-(pyridin-3-yl)-1H-pyrazol-4-yl]methyl]-octahydropyrrolo[3,4-c]pyrrole-2-carboxylate]: the inhibition at 1 µM in test [1] is 25 to 75%; in test [2] it was < 25%; in test [3] it was > 75%. The IC50 in test [4] was 1000 to 10000 nM; in test [5] it was < 100 nM; in test [6] it was 1000 to 10000 nM. For the same compound, the inhibition at 5 mg/kg in test [7] was 25 to 75%.
